Among the data in ChEMBL document CHEMBL1157397, “Cyclooxygenase (COX)-1 and -2 inhibitory labdane diterpenes from Crassocephalum mannii” (J Nat Prod, 2008) are inhibition values, retold here.

This experiment concerns the target T1, Prostaglandin G/H synthase 1 (Ovis aries) (UniProt P05979).
T1 sequence (whole entry): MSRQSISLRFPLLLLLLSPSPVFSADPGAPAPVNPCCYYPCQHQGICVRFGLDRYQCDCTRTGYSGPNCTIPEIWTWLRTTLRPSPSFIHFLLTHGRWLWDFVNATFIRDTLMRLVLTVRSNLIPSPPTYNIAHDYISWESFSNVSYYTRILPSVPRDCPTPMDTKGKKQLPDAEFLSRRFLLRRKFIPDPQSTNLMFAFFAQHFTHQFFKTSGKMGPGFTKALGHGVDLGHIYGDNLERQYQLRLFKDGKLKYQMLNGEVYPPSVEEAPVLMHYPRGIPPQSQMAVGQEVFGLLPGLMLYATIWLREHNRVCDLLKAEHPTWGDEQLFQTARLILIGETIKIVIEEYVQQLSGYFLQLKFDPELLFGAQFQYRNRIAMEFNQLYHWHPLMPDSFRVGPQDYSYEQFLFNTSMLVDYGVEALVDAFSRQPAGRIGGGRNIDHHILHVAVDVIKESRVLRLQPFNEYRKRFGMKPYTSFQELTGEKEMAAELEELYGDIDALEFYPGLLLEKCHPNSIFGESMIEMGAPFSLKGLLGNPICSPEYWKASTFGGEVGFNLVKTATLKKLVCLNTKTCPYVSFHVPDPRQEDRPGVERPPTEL
The experiment in a line: Inhibition of ovine COX1 at 100 uM.
With `CC(=O)OC[C@]1(C)CCC[C@]2(C)[C@@H](CC/C(C)=C/C(=O)O)[C@](C)(O)CC[C@@H]12`, the inhibition (as a rule, how much of the control response was suppressed) is 2%.
Then `C[C@@]1(CO)CCC[C@]2(C)[C@@H](CCO)[C@](C)(O)CC[C@@H]12`, with 44%.
Next, `C/C(=C\C(=O)O)CC[C@@H]1[C@@]2(C)CCC[C@@](C)(CO)[C@@H]2CC[C@@]1(C)O`: 29%.
Then `CC(=O)OCC[C@@H]1[C@@]2(C)CCC[C@@](C)(COC(C)=O)[C@@H]2CC[C@@]1(C)O`, with 18%.
